{"source": "patent US9241976B2", "about": "“Use of HDL-related molecules to treat and prevent proinflammatory conditions” (THE REGENTS OF THE UNIVERSITY OF CALIFORNIA, priority 2011, dated 2016)", "key": {"ROS": {"test_system": "ROS", "assay": "Cellular reactive oxygen species, dichlorofluorescein oxidation assay in OV2008 cells", "format": "cell-based, human", "conditions": "10 μg/ml pretreatment 1 h", "description": "As described previously (Zhou et al., 2007; Lee et al., 2009), OV2008 cells were plated onto a glass slip (Thermo Fisher Scientific) in a 24-well plate at 4×10^4 cells per well, cultured overnight in normal cultured condition, starved in serum-free media overnight, and treated with L-4F (10 μg/ml) for 1 h. Then, dichlorofluorescein diacetate (DCFHDA, 10 μM) and insulin (200 nM)/CoCl2 (100 μM) were added and incubated with the cells for an additional 0.5 h. The cells were washed twice with phosphate-buffered saline (PBS). The images were captured with a fluorescence microscope (Olympus IX70; Olympus, Tokyo, Japan)."}, "CD31": {"test_system": "CD31", "assay": "ID8 flank tumor model, CD31 staining of vessels", "format": "in vivo, mouse", "conditions": "C57BL/6J mice, 10 mg/kg s.c. daily for 3 weeks, vs control group", "description": "Nine-week-old C57BL/6J female mice were given a 0.5-ml subcutaneous injection of 5×10^6 ID8 cells prepared as a single cell suspension in PBS mixed with an equal volume of cold Matrigel (BD Biosciences, San Jose, Calif.). After 2 weeks, mice started to receive scrambled 4F peptide (sc-4F) or L-4F (10 mg/kg) by subcutaneous injection at a site distant from the site where the ID8 cells were injected daily for 3 weeks. After 3 weeks, the mice were sacrificed for tumor collection and further analyses.\nFrozen tumor tissues were sectioned at a thickness of 5 μm and fixed with cold acetone for 10 min at −20° C. The sections were blocked with 10% normal goat serum and 4% bovine serum albumin prepared in PBS for 3 h and immediately incubated with rabbit anti-mouse polyclonal HIF-1α antibody (1:200) (Abcam Inc.) or rat anti-mouse monoclonal CD31 antibody (1:25) (Abcam Inc.) overnight at 4° C. The sections were then incubated with corresponding biotinylated secondary antibodies (Vector Laboratories) for 30 min at room temperature followed by incubation with Vectastain ABC Elite reagents (Vector Laboratories) to visualize the staining. Finally, sections were lightly counterstained with hematoxylin, dehydrated, and coverslipped with Vecta-Mount solution (Vector Laboratories)."}, "HIF-1α mRNA": {"test_system": "HIF-1α mRNA", "assay": "HIF-1α mRNA, real-time RT-PCR", "format": "cell-based, human", "description": "Total RNA was extracted from cells by using a PureLink RNA Mini Kit (Invitrogen). The quantity and quality of RNA were assessed by using a SmartSpec 3000 Spectrophotometer (Bio-Rad Laboratories, Hercules, Calif.). cDNA was synthesized by using the High Capacity cDNA Reverse Transcription Kit (Applied Biosystems, Foster City, Calif.) according to the manufacturer's instructions. PCRs were performed by using the CFX96 realtime PCR system (Applied Biosystems). The cycling conditions were as follows: 3 min at 95° C. followed by 40 cycles of 95° C., 10 s; 60° C., 10 s; 72° C., 30 s followed by a final extension at 72° C. for 10 min. Each 25-μl reaction contained 0.4 μg of cDNA, 12.5 μl of SYBR Green qPCR SuperMix (Bio-Rad Laboratories), and 250 nM forward and reverse primers in nuclease-free water. […]"}, "CT26 cells [1]": {"test_system": "CT26 cells", "assay": "LPA-induced viability of CT26 cells", "format": "cell-based, mouse", "conditions": "L-4F 10 mg/mL with LPA 5, 10, 48 hours", "description": "FIGS. 17A-17B. HDL mimetic, L-4F inhibits LPA induced viability of CT26 cells and reduces LPA levels in cell culture medium. FIG. 17A, CT26 cells were cultured as described in Example 5 and incubated with either L-4F at 10 mg/mL or LPA at a concentration 5, 10, […], or cells were treated with both L-4F and LPA for 48 hours. All experiments were conducted in triplicate and each assay was carried out in quadruplicates. Data are represented as the mean±SD of the percent of control cells. FIG. 17B, LPA levels were measured in the cell culture medium after 48 hours of treatment.\nThe peptides were dissolved in H2O."}, "CT26 cells [2]": {"test_system": "CT26 cells", "assay": "Cell-cycle analysis of CT26 cells by flow cytometry", "format": "cell-based, mouse", "set-up": "dose or concentration left out as unconfirmed", "conditions": "48 hours", "description": "CT26 cells were cultured in 6-well plates overnight and then serum starved for 48 hours. […] Cells were collected, washed with PBS, and fixed with 70% ice-cold methanol overnight at 4° C. The fixed cells were collected by centrifugation, washed with PBS, and resuspended in 0.3 mL of PBS containing […] RNaseA and […] propidium iodide, and subjected to flow cytometric cell-cycle analysis by FACScan from BD Biosciences."}}, "data": [{"substance": "Ac-DWFKAFYDKVAEKFKEAF-NH2 [L-4F, Ac-D-W-F-K-A-F-Y-D-K-V-A-E-K-F-K-E-A-F-NH2]", "values": [{"measurement": "cellular ROS production induced by insulin and CoCl2", "setting": "ROS", "result": "dramatically prevented"}, {"measurement": "number of vessels in tumors", "setting": "CD31", "result": "reduction in the number of vessels"}, {"measurement": "basal level of HIF-1α mRNA", "setting": "HIF-1α mRNA", "result": "no effect"}, {"measurement": "LPA-induced viability", "setting": "CT26 cells [1]", "result": "significantly reduced"}, {"measurement": "cell-cycle profile", "setting": "CT26 cells [2]", "result": "induced an increase in G0/G1 phase and arrest in S phase"}]}]}
